From ChEMBL document CHEMBL1201862, “PubChem BioAssay data set” (2004) come the findings set out here.

Holding throughout (assay): inhibition of tumour cell growth, NCI panel, 48 h
Experiment [1] deals with DLD-1.
The test system of experiment [2] is SNB-78.
Experiment [3] has as its system KM-20L2.
For experiment [4], the system named is XF498.
Experiment [5] concerns RXF 631.
In experiment [6] the test system is M19-MEL.
For experiment [7], the system named is DMS-273.
Experiment [8] deals with DMS-114.
Experiment [9] deals with HOP-18.

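Five concentrations, 48 hours, 96-well plates. Here, GI50 denotes the concentration required for 50% inhibition of growth.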 Activity calls are given as the source filed them. Rule as the data show it: active = GI50 up to about 1.1 µM and inactive = higher.

Consider `CCN(CC)CC1c2ccccc2C(CNc2ccccc2)N1C` (stereo not drawn), for which the GI50 is 70.8 µM (inactive) in [1]; > 100 µM (inactive) in [2]; > 100 µM (inactive) in experiment [3]; > 100 µM (inactive) in [4]; > 100 µM (inactive) in experiment [5]; > 100 µM (inactive) in experiment [6]. Further, the GI50 in experiment [7] and in experiment [8] was > 100 µM (inactive) in each case.
`O=C(N/C=C/C=C/Sc1ccccc1)OCc1ccccc1`: the GI50 in [1] was 14.1 µM (inactive); in experiment [2], 40.2 µM (inactive); in [3] it was 17.2 µM (inactive); in experiment [4] it was 20.4 µM (inactive); in [5], 19.1 µM (inactive); in experiment [6], 17.2 µM (inactive). Further, the GI50 in experiment [7] is 16.6 µM (inactive); in experiment [8], 16.6 µM (inactive); in experiment [9] it was 28.1 µM (inactive).
`COc1cc([C@@H]2c3cc4c(cc3[C@@H](NC(=O)c3ccccc3)C3COC(=O)[C@@H]32)OCO4)cc(OC)c1O` (stereo partly drawn): the GI50 in [1] was 14.9 µM (inactive); in experiment [2], 41.2 µM (inactive); in experiment [3] it was 2.71 µM (inactive); in [6] it was 4.82 µM (inactive); in experiment [7], 1.52 µM (inactive); in experiment [8], 2.61 µM (inactive). In addition, in experiment [9], the GI50 was > 100 µM (inactive).
Turning to `O=C(O)/C=C\C(=O)Nc1ccc(S(=O)(=O)c2ccc(NC(=O)/C=C\C(=O)O)cc2)cc1`, the GI50 in [1] is > 100 µM (inactive); in experiment [2], > 100 µM (inactive); in [3], > 100 µM (inactive); in [4] it was > 100 µM (inactive); in experiment [6], 45 µM (inactive); in experiment [8], > 100 µM (inactive).
`NC(=O)c1nnn(Cc2cc(Cl)c(C(=O)c3ccc(Cl)cc3)c(Cl)c2)c1N` [CARBOXYAMIDOTRIAZOLE]: the GI50 in experiment [1] is > 9.1 µM (inactive); in [2], > 9.1 µM (inactive); in experiment [3] it was > 9.1 µM (inactive); in experiment [4], > 9.1 µM (inactive); in [5], 11.7 µM (inactive); in [6] it was > 9.1 µM (inactive). In addition, the GI50 in experiment [7] was > 9.1 µM (inactive); in experiment [8] it was 6.1 µM (inactive); in experiment [9], > 9.1 µM (inactive).
For the compound `O=C1c2ccccc2C(=O)c2c(/C=C\N3CCCCC3)ccnc21`, the GI50 was 1.39 µM (inactive) in experiment [1]; 18.7 µM (inactive) in experiment [2]; 15.5 µM (inactive) in experiment [3]; 11.1 µM (inactive) in experiment [4]; 8.22 µM (inactive) in experiment [5]; 0.237 µM (active) in experiment [6]. Besides, the GI50 in experiment [7] was 2.3 µM (inactive); in experiment [8] it was 0.813 µM (active); in [9], 1.25 µM (inactive).
On to `C=C(OC1C(C)=C2C(C1OC(=O)CCCCCCC)C(C)(OC(C)=O)CC(OC(=O)CCC)C1(O)C2OC(=O)C1(C)O)/C(C)=C/C` (stereo not drawn), for which the GI50 is 0.843 µM (active) in experiment [1]; 0.015 µM (active) in [2]; 0.0314 µM (active) in experiment [3]; 0.348 µM (active) in [4]; 0.0125 µM (active) in experiment [6]; 0.0125 µM (active) in [7]. The GI50 in experiment [8] and in experiment [9] was 0.0125 µM (active) in each case.
As for `Cc1ccc(S(=O)(=O)C(C#N)c2nc3ccccc3nc2N2CCOCC2)cc1` (stereo not drawn), the GI50 in [1] was 27.3 µM (inactive); in experiment [2], 3.09 µM (inactive); in experiment [3] it was 33.4 µM (inactive); in experiment [4], 24.3 µM (inactive); in [6], 26.7 µM (inactive); in experiment [7], 17.8 µM (inactive). The GI50 in experiment [8] was 22.5 µM (inactive).
Turning to `NNC(=O)C(=O)N/N=C1\CCCC1C(=O)CCC(=O)Nc1cccc(Cl)c1` (stereo not drawn), the GI50 in experiment [1], in experiment [2], in [3], in [4], in experiment [5] and in [6] was > 100 µM (inactive) each time. Moreover, the GI50 in [8] and in [9] was > 100 µM (inactive) throughout.
Regarding `N#Cc1cccc(-n2[nH]c(=O)ccc2=O)c1`, the GI50 in experiment [1], in experiment [3], in [6], in experiment [7] and in experiment [8] was > 100 µM (inactive) throughout.
Regarding `CCN(CC)CCOC(c1ccccc1)c1ccccc1.CCOC(=O)Nc1ccc(S(=O)(=O)NCCCl)cc1.CCOC(=O)Nc1ccc(S(=O)(=O)NCCCl)cc1.Nc1ccc(C(=O)O)c(O)c1`, the GI50 in [1], in experiment [2], in experiment [3], in experiment [5], in [6] and in experiment [8] was > 100 µM (inactive) each time. Besides, the GI50 in [9] is > 100 µM (inactive).
For the compound `O=C1C=CC2(C=C1)CCNC1=C2C(=O)c2ccccc2C1=O`, the GI50 in experiment [1] was > 100 µM (inactive); in experiment [3], > 100 µM (inactive); in experiment [4] it was > 100 µM (inactive); in experiment [5], > 100 µM (inactive); in [6], 32.5 µM (inactive); in experiment [7], > 100 µM (inactive). In addition, in [8], the GI50 was > 100 µM (inactive).
In the case of `N#CC(NNC(=O)c1ccccc1O)c1cccc(O)c1` (stereo not drawn), the GI50 in [1] is 4.54 µM (inactive); in experiment [2] it was 4.89 µM (inactive); in [3], 33.7 µM (inactive); in [7] it was 2.32 µM (inactive); in experiment [8], 3.61 µM (inactive); in experiment [9] it was 35.3 µM (inactive).
As to `C/C(=N\[N+](C)(C)C)C(c1ccccc1)C1(c2ccccc2)C(c2ccccc2)=C1c1ccccc1` (stereo not drawn), the GI50 in experiment [1] was > 100 µM (inactive); in experiment [2], 50.5 µM (inactive); in experiment [3], > 100 µM (inactive); in experiment [4], 22.6 µM (inactive); in experiment [6], > 100 µM (inactive); in experiment [7], > 100 µM (inactive).
In the case of `CC1=NN(C(=O)c2ccc(Cl)cc2)C(=O)/C1=C/c1cccc(O)c1`, the GI50 in experiment [1], in experiment [2], in experiment [3], in [6] and in experiment [8] was > 100 µM (inactive) each time.
`C#CCn1c(=O)c2cccnc2n(CC#C)c1=O`: the GI50 in experiment [1], in [2], in [4], in [7] and in [9] was > 100 µM (inactive) throughout.
In the case of `COCN1C(=O)C2CC(/C=C/C(N)=O)=CN2C(=O)c2ccccc21` (stereo not drawn), the GI50 in [1], in experiment [2], in experiment [3], in experiment [4], in experiment [6] and in [7] was > 100 µM (inactive) each time. The GI50 in experiment [8] and in experiment [9] was > 100 µM (inactive) throughout.
Take `COc1cc(CC2C(=O)OCC2[C@@H](OC(C)=O)c2ccc3c(c2)OCO3)c(Br)c(OC)c1OC` (stereo partly drawn): the GI50 in experiment [1] was > 100 µM (inactive); in experiment [3] it was 44 µM (inactive); in experiment [4] it was 62.8 µM (inactive); in experiment [6], 37.8 µM (inactive); in experiment [7], 30.7 µM (inactive); in experiment [8], 28 µM (inactive). Moreover, the GI50 in experiment [9] was > 100 µM (inactive).
As for `Cc1ccc(C(=O)O)cc1NC(=O)c1cc(/C=C/c2ccccc2)[nH]c(=S)n1`, the GI50 was > 49.8 µM (inactive) in experiment [1]; > 100 µM (inactive) in experiment [2]; > 100 µM (inactive) in experiment [3]; > 100 µM (inactive) in [4]; > 100 µM (inactive) in experiment [5]; > 57.4 µM (inactive) in experiment [7]. In addition, the GI50 is > 57 µM (inactive) in experiment [8] and > 100 µM (inactive) in experiment [9].
As to `CN(CCO)c1nc(=O)c2c(n1C1OC(CO)C(O)C(O)C1O)CCCC2` (stereo not drawn), the GI50 in experiment [1], in experiment [2], in [3], in experiment [4], in experiment [6] and in experiment [7] was > 100 µM (inactive) throughout. The GI50 in [8] and in [9] was > 100 µM (inactive) throughout.
`COc1ccc(-c2cc(C(=O)Nc3ccc(C)c(C)c3)nc(NC#N)n2)cc1`: the GI50 in experiment [1], in [2], in experiment [3], in experiment [4], in experiment [6] and in experiment [7] was > 100 µM (inactive) each time. For the same compound, the figures for the GI50 in experiment [8] and in experiment [9] were > 100 µM (inactive) and 0.562 µM (active), respectively.
As to `N=C(N)C1=C(O)NC(=O)N(C2CCCCC2)C1`, the GI50 in [1], in [2], in [3], in experiment [6], in experiment [7] and in experiment [8] was > 100 µM (inactive) throughout. Besides, in experiment [9], the GI50 was > 100 µM (inactive).
Consider `Cn1cc(NC(=O)c2cc(NC(=O)CCCCCCC(=O)Nc3cc(C(=O)Nc4cc(C(=O)NCCC(=N)N)n(C)c4)n(C)c3)cn2C)cc1C(=O)NCCC(=N)N`, for which the GI50 in experiment [1] is 18.9 µM (inactive); in [2], 24.2 µM (inactive); in experiment [3] it was > 100 µM (inactive); in experiment [4], 34.9 µM (inactive); in experiment [6], 2.82 µM (inactive); in experiment [7] it was 3.82 µM (inactive). The GI50 is 2.47 µM (inactive) in experiment [8] and 15.5 µM (inactive) in experiment [9].
For the compound `O=[N+]([O-])c1ccc(-c2noc(-c3ccccc3)c2C2=NCCN2)cc1`, the GI50 was > 100 µM (inactive) in experiment [1]; 39.2 µM (inactive) in [2]; 40.5 µM (inactive) in [3]; 70.6 µM (inactive) in experiment [4]; 60.3 µM (inactive) in experiment [5]; > 100 µM (inactive) in [6]. Besides, the GI50 in [9] is 21.1 µM (inactive).
